Assay results reported in patent US20140357713A1, “ANTIMICROBIAL COMPOUNDS AND METHODS OF USE” (NexMed Holdings, Inc., priority 2012, published 2014).

Assays:
Assay in all cases: Extended time kill study, Example 34 (0 to 24 h)
Assay type in all cases: cell-based
[1] = test system: Staphylococcus aureus
Experimental: (§1) Time kill studies. Strain suspensions were prepared as described above for the MIC test, and strain suspensions and compound solutions were mixed in the same volume. Samples were removed at specified times including 0 min, 30 sec, 1 min and 5 mins, were diluted in the test medium and streaked on agar. Colonies were counted after 24 to 48 hrs of incubation.
(§2) The time kill studies of Example 33 were extended for five compounds (Nex-59, Nex-60, Nex-61, Nex-62, and Nex-88) using the same methods at longer time periods and at higher multiples of MIC. Nex-88 is a code number for DDAIP.HCl from a different supplier.

[2] = test system: Escherichia coli
Experimental: as §1, §2

[3] = test system: Aspergillus niger
Experimental: as §1, §2

[4] = test system: Candida albicans
Experimental: as §1, §2

[5] = test system: Pseudomonas aeruginosa
Experimental: as §1, §2

CCCCCCCCCCCCOC(=O)C(C)NCCO.Cl (stereo not drawn) [Nex-61, Dodecyl 2-((2-hydroxyethyl)amino)propanoate hydrochloride]
Viable counts, Staphylococcus aureus time kill study ([1]; 1 × MIC, 1 h): 5 Log10 CFU/mL
Viable counts, Staphylococcus aureus time kill study ([1]; 1 × MIC, 2 h): <3 Log10 CFU/mL
Viable counts, Staphylococcus aureus time kill study ([1]; 1 × MIC, 4 h): <3 Log10 CFU/mL
Viable counts, Staphylococcus aureus time kill study ([1]; 1 × MIC, 6 h): <3 Log10 CFU/mL
Viable counts, Staphylococcus aureus time kill study ([1]; 1 × MIC, 24 h): <1 Log10 CFU/mL
Viable counts, Staphylococcus aureus time kill study ([1]; 1×MIC, time 0): 6.14 Log10 CFU/mL
Viable counts, Staphylococcus aureus time kill study ([1]; 2 × MIC, 1 h): <3 Log10 CFU/mL
Viable counts, Staphylococcus aureus time kill study ([1]; 2 × MIC, 2 h): <3 Log10 CFU/mL
Viable counts, Staphylococcus aureus time kill study ([1]; 2 × MIC, 4 h): <3 Log10 CFU/mL
Viable counts, Staphylococcus aureus time kill study ([1]; 2 × MIC, 6 h): <3 Log10 CFU/mL
Viable counts, Staphylococcus aureus time kill study ([1]; 2 × MIC, 24 h): <1 Log10 CFU/mL
Viable counts, Staphylococcus aureus time kill study ([1]; 2 × MIC, time 0): 6.20 Log10 CFU/mL
Viable counts, Staphylococcus aureus time kill study ([1]; 4 × MIC, 1 h): <3 Log10 CFU/mL
Viable counts, Staphylococcus aureus time kill study ([1]; 4 × MIC, 2 h): <3 Log10 CFU/mL
Viable counts, Staphylococcus aureus time kill study ([1]; 4 × MIC, 4 h): <3 Log10 CFU/mL
Viable counts, Staphylococcus aureus time kill study ([1]; 4 × MIC, 6 h): <3 Log10 CFU/mL
Viable counts, Staphylococcus aureus time kill study ([1]; 4 × MIC, 24 h): <1 Log10 CFU/mL
Viable counts, Staphylococcus aureus time kill study ([1]; 4 × MIC, time 0): 6.18 Log10 CFU/mL
Viable counts, Escherichia coli time kill study ([2]; 1 × MIC, 1 h): 1.70 Log10 CFU/mL
Viable counts, Escherichia coli time kill study ([2]; 1 × MIC, 2 h): 1.60 Log10 CFU/mL
Viable counts, Escherichia coli time kill study ([2]; 1 × MIC, 4 h): 3.16 Log10 CFU/mL
Viable counts, Escherichia coli time kill study ([2]; 1 × MIC, 6 h): 4.38 Log10 CFU/mL
Viable counts, Escherichia coli time kill study ([2]; 1 × MIC, 24 h): 7.75 Log10 CFU/mL
Viable counts, Escherichia coli time kill study ([2]; 1×MIC, time 0): 5.08 Log10 CFU/mL
Viable counts, Escherichia coli time kill study ([2]; 2 × MIC, 1 h): <1 Log10 CFU/mL
Viable counts, Escherichia coli time kill study ([2]; 2 × MIC, 2 h): <1 Log10 CFU/mL
Viable counts, Escherichia coli time kill study ([2]; 2 × MIC, 4 h): <1 Log10 CFU/mL
Viable counts, Escherichia coli time kill study ([2]; 2 × MIC, 6 h): <1 Log10 CFU/mL
Viable counts, Escherichia coli time kill study ([2]; 2 × MIC, 24 h): <1 Log10 CFU/mL
Viable counts, Escherichia coli time kill study ([2]; 2 × MIC, time 0): 5.03 Log10 CFU/mL
Viable counts, Escherichia coli time kill study ([2]; 4 × MIC, 1 h): <1 Log10 CFU/mL
Viable counts, Escherichia coli time kill study ([2]; 4 × MIC, 2 h): <1 Log10 CFU/mL
Viable counts, Escherichia coli time kill study ([2]; 4 × MIC, 4 h): <1 Log10 CFU/mL
Viable counts, Escherichia coli time kill study ([2]; 4 × MIC, 6 h): <1 Log10 CFU/mL
Viable counts, Escherichia coli time kill study ([2]; 4 × MIC, 24 h): <1 Log10 CFU/mL
Viable counts, Escherichia coli time kill study ([2]; 4 × MIC, time 0): 5.05 Log10 CFU/mL
Viable counts in Log10 CFU/mL ([3]; 1 × MIC, 1 h): 5.48 Log10 CFU/mL
Viable counts in Log10 CFU/mL ([3]; 1 × MIC, 2 h): 5.36 Log10 CFU/mL
Viable counts in Log10 CFU/mL ([3]; 1 × MIC, 4 h): 5.18 Log10 CFU/mL
Viable counts in Log10 CFU/mL ([3]; 1 × MIC, 6 h): 4.95 Log10 CFU/mL
Viable counts in Log10 CFU/mL ([3]; 1 × MIC, 24 h): 4.48 Log10 CFU/mL
Viable counts in Log10 CFU/mL ([3]; 1 × MIC, 0 h): 5.28 Log10 CFU/mL
Viable counts in Log10 CFU/mL ([3]; 2 × MIC, 1 h): 5.52 Log10 CFU/mL
Viable counts in Log10 CFU/mL ([3]; 2 × MIC, 2 h): 5.57 Log10 CFU/mL
Viable counts in Log10 CFU/mL ([3]; 2 × MIC, 4 h): 4.48 Log10 CFU/mL
Viable counts in Log10 CFU/mL ([3]; 2 × MIC, 6 h): 4.90 Log10 CFU/mL
Viable counts in Log10 CFU/mL ([3]; 2 × MIC, 24 h): 3 Log10 CFU/mL
Viable counts in Log10 CFU/mL ([3]; 2 × MIC, 0 h): 5.33 Log10 CFU/mL
Viable counts in Log10 CFU/mL ([3]; 4 × MIC, 1 h): 5.34 Log10 CFU/mL
Viable counts in Log10 CFU/mL ([3]; 4 × MIC, 2 h): 5.41 Log10 CFU/mL
Viable counts in Log10 CFU/mL ([3]; 4 × MIC, 4 h): 5.28 Log10 CFU/mL
Viable counts in Log10 CFU/mL ([3]; 4 × MIC, 6 h): 4.95 Log10 CFU/mL
Viable counts in Log10 CFU/mL ([3]; 4 × MIC, 24 h): <2 Log10 CFU/mL
Viable counts in Log10 CFU/mL ([3]; 4 × MIC, 0 h): 5.26 Log10 CFU/mL
Viable counts in Log10 CFU/mL ([4]; 1 × MIC, 1 h): 5.37 Log10 CFU/mL
Viable counts in Log10 CFU/mL ([4]; 1 × MIC, 2 h): 5.37 Log10 CFU/mL
Viable counts in Log10 CFU/mL ([4]; 1 × MIC, 4 h): 5.32 Log10 CFU/mL
Viable counts in Log10 CFU/mL ([4]; 1 × MIC, 6 h): 5.54 Log10 CFU/mL
Viable counts in Log10 CFU/mL ([4]; 1 × MIC, 24 h): >6 Log10 CFU/mL
Viable counts in Log10 CFU/mL ([4]; 1 × MIC, 0 h): 5.43 Log10 CFU/mL
Viable counts in Log10 CFU/mL ([4]; 2 × MIC, 1 h): <3 Log10 CFU/mL
Viable counts in Log10 CFU/mL ([4]; 2 × MIC, 2 h): <3 Log10 CFU/mL
Viable counts in Log10 CFU/mL ([4]; 2 × MIC, 4 h): <2.70 Log10 CFU/mL
Viable counts in Log10 CFU/mL ([4]; 2 × MIC, 6 h): <2.70 Log10 CFU/mL
Viable counts in Log10 CFU/mL ([4]; 2 × MIC, 24 h): >6 Log10 CFU/mL
Viable counts in Log10 CFU/mL ([4]; 2 × MIC, 0 h): 5.48 Log10 CFU/mL
Viable counts in Log10 CFU/mL ([4]; 4 × MIC, 1 h): <3 Log10 CFU/mL
Viable counts in Log10 CFU/mL ([4]; 4 × MIC, 2 h): <3 Log10 CFU/mL
Viable counts in Log10 CFU/mL ([4]; 4 × MIC, 4 h): <2.70 Log10 CFU/mL
Viable counts in Log10 CFU/mL ([4]; 4 × MIC, 6 h): <2.70 Log10 CFU/mL
Viable counts in Log10 CFU/mL ([4]; 4 × MIC, 24 h): <1 Log10 CFU/mL
Viable counts in Log10 CFU/mL ([4]; 4 × MIC, 0 h): 5.39 Log10 CFU/mL
Viable counts, Pseudomonas aeruginosa time kill study ([5]; 1 × MIC, 1 h): <1 Log10 CFU/mL
Viable counts, Pseudomonas aeruginosa time kill study ([5]; 1 × MIC, 2 h): <1 Log10 CFU/mL
Viable counts, Pseudomonas aeruginosa time kill study ([5]; 1 × MIC, 4 h): <1 Log10 CFU/mL
Viable counts, Pseudomonas aeruginosa time kill study ([5]; 1 × MIC, 6 h): <1 Log10 CFU/mL
Viable counts, Pseudomonas aeruginosa time kill study ([5]; 1 × MIC, 24 h): <1 Log10 CFU/mL
Viable counts, Pseudomonas aeruginosa time kill study ([5]; 1×MIC, time 0): 5.28 Log10 CFU/mL
Viable counts, Pseudomonas aeruginosa time kill study ([5]; 2 × MIC, 1 h): <1 Log10 CFU/mL
Viable counts, Pseudomonas aeruginosa time kill study ([5]; 2 × MIC, 2 h): <1 Log10 CFU/mL
Viable counts, Pseudomonas aeruginosa time kill study ([5]; 2 × MIC, 4 h): <1 Log10 CFU/mL
Viable counts, Pseudomonas aeruginosa time kill study ([5]; 2 × MIC, 6 h): <1 Log10 CFU/mL
Viable counts, Pseudomonas aeruginosa time kill study ([5]; 2 × MIC, 24 h): <1 Log10 CFU/mL
Viable counts, Pseudomonas aeruginosa time kill study ([5]; 2 × MIC, time 0): 5.29 Log10 CFU/mL
Viable counts, Pseudomonas aeruginosa time kill study ([5]; 4 × MIC, 1 h): <1 Log10 CFU/mL
Viable counts, Pseudomonas aeruginosa time kill study ([5]; 4 × MIC, 2 h): <1 Log10 CFU/mL
Viable counts, Pseudomonas aeruginosa time kill study ([5]; 4 × MIC, 4 h): <1 Log10 CFU/mL
Viable counts, Pseudomonas aeruginosa time kill study ([5]; 4 × MIC, 6 h): <1 Log10 CFU/mL
Viable counts, Pseudomonas aeruginosa time kill study ([5]; 4 × MIC, 24 h): <1 Log10 CFU/mL
Viable counts, Pseudomonas aeruginosa time kill study ([5]; 4 × MIC, time 0): 5.26 Log10 CFU/mL
